Measurements: PubChem BioAssay (NCI)
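Compound exposure: 48 hours, 5 concentrations, 96-well plates. GI50 = concentration required for 50% inhibition of growth. TGI: total growth inhibition.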

How the values were obtained:
Experiment in all cases: NCI-60 cell line screen, 48 h
NCI-H460 lung = test system: NCI-H460 lung
786-0 renal = test system: 786-0 renal
HOP-92 NSCLC = test system: HOP-92 NSCLC
HL-60(TB) leukemia = test system: HL-60(TB) leukemia
SK-MEL-28 melanoma = test system: SK-MEL-28 melanoma
OVCAR-5 ovarian = test system: OVCAR-5 ovarian
SR leukemia = test system: SR leukemia
A549 NSCLC = test system: A549 NSCLC
EKVX NSCLC = test system: EKVX NSCLC
HS 578T breast = test system: HS 578T breast
M14 melanoma = test system: M14 melanoma
HOP-62 NSCLC = test system: HOP-62 NSCLC
CCRF-CEM leukemia = test system: CCRF-CEM leukemia
OVCAR-8 ovarian = test system: OVCAR-8 ovarian
SF-539 CNS = test system: SF-539 CNS
SNB-19 CNS = test system: SNB-19 CNS
NCI-H23 lung = test system: NCI-H23 lung
MOLT-4 leukemia = test system: MOLT-4 leukemia
SK-MEL-2 melanoma = test system: SK-MEL-2 melanoma
DU-145 prostate = test system: DU-145 prostate
SN12C renal = test system: SN12C renal
NCI-H522 lung = test system: NCI-H522 lung
UACC-257 melanoma = test system: UACC-257 melanoma
PC-3 prostate = test system: PC-3 prostate
HCC-2998 colon = test system: HCC-2998 colon
SNB-75 CNS = test system: SNB-75 CNS
SK-OV-3 ovarian = test system: SK-OV-3 ovarian
UO-31 renal = test system: UO-31 renal
K-562 leukemia = test system: K-562 leukemia
HCT-15 colon = test system: HCT-15 colon
UACC-62 melanoma = test system: UACC-62 melanoma
RXF 393 renal = test system: RXF 393 renal
SK-MEL-5 melanoma = test system: SK-MEL-5 melanoma
SF-295 CNS = test system: SF-295 CNS
T-47D breast = test system: T-47D breast
MDA-MB-435 = test system: MDA-MB-435
U251 CNS = test system: U251 CNS
ACHN renal = test system: ACHN renal
LOX IMVI melanoma = test system: LOX IMVI melanoma
KM12 colon = test system: KM12 colon
A498 renal = test system: A498 renal
OVCAR-4 ovarian = test system: OVCAR-4 ovarian
NCI-H226 lung = test system: NCI-H226 lung
BT-549 breast = test system: BT-549 breast
HT29 colon = test system: HT29 colon
CAKI-1 renal = test system: CAKI-1 renal
NCI/ADR-RES ovarian = test system: NCI/ADR-RES ovarian
SF-268 CNS = test system: SF-268 CNS
COLO 205 colon = test system: COLO 205 colon
OVCAR-3 ovarian = test system: OVCAR-3 ovarian
TK-10 renal = test system: TK-10 renal
MCF7 breast = test system: MCF7 breast
MDA-MB-231 breast = test system: MDA-MB-231 breast
RPMI-8226 leukemia = test system: RPMI-8226 leukemia
SW-620 colon = test system: SW-620 colon
IGROV1 ovarian = test system: IGROV1 ovarian
MALME-3M melanoma = test system: MALME-3M melanoma
HCT-116 colon = test system: HCT-116 colon

Work on `COc1ccc2[nH]c(-c3ccccc3)c(C=C(C#N)C#N)c2c1` yielded a GI50 (NCI-H460 lung) of 3.56 µM, a TGI (NCI-H460 lung) greater than 100 µM and a GI50 (786-0 renal) of 6.63 µM. For the same molecule, the TGI (786-0 renal) was greater than 100 µM, the GI50 (HOP-92 NSCLC) was 2.4 µM and the TGI (HOP-92 NSCLC) was 36.4 µM. The GI50 (HL-60(TB) leukemia) was 2.5 µM, the TGI (HL-60(TB) leukemia) was 13.2 µM and the GI50 (SK-MEL-28 melanoma) was 4.44 µM. The TGI (SK-MEL-28 melanoma) was greater than 100 µM, the GI50 (OVCAR-5 ovarian) was 44.2 µM and the TGI (OVCAR-5 ovarian) was greater than 100 µM. The GI50 (SR leukemia) was 0.865 µM, the TGI (SR leukemia) was 3.29 µM and the GI50 (A549 NSCLC) was 6.97 µM. It also gave a TGI (A549 NSCLC) greater than 100 µM, a GI50 (EKVX NSCLC) of 4.05 µM and a TGI (EKVX NSCLC) greater than 100 µM. It also gave a GI50 (HS 578T breast) of 2.35 µM, a TGI (HS 578T breast) of 25.4 µM and a GI50 (M14 melanoma) of 2.29 µM. It also gave a TGI (M14 melanoma) of 44.5 µM, a GI50 (HOP-62 NSCLC) of 5.31 µM and a TGI (HOP-62 NSCLC) of 36.1 µM. The GI50 (CCRF-CEM leukemia) was 3.42 µM, the TGI (CCRF-CEM leukemia) was greater than 100 µM and the GI50 (OVCAR-8 ovarian) was 7.71 µM. It also gave a TGI (OVCAR-8 ovarian) greater than 100 µM, a GI50 (SF-539 CNS) of 2.94 µM and a TGI (SF-539 CNS) of 22 µM. The GI50 (SNB-19 CNS) was 6.04 µM, the TGI (SNB-19 CNS) was greater than 100 µM and the GI50 (NCI-H23 lung) was 4.08 µM. It also gave a TGI (NCI-H23 lung) greater than 100 µM, a GI50 (MOLT-4 leukemia) of 3.74 µM and a TGI (MOLT-4 leukemia) greater than 100 µM. The GI50 (SK-MEL-2 melanoma) was 5.87 µM, the TGI (SK-MEL-2 melanoma) was greater than 100 µM and the GI50 (DU-145 prostate) was 6.52 µM. The TGI (DU-145 prostate) was greater than 100 µM, the GI50 (SN12C renal) was 4.67 µM and the TGI (SN12C renal) was greater than 100 µM. The GI50 (NCI-H522 lung) was 4.57 µM, the TGI (NCI-H522 lung) was greater than 100 µM and the GI50 (UACC-257 melanoma) was 30 µM. The TGI (UACC-257 melanoma) was greater than 100 µM, the GI50 (PC-3 prostate) was 5.37 µM and the TGI (PC-3 prostate) was greater than 100 µM. For the same molecule, the GI50 (HCC-2998 colon) was 6.08 µM, the TGI (HCC-2998 colon) was greater than 100 µM and the GI50 (SNB-75 CNS) was 2.76 µM. The TGI (SNB-75 CNS) was 21.2 µM, the GI50 (SK-OV-3 ovarian) was 4.82 µM and the TGI (SK-OV-3 ovarian) was 35.8 µM. The GI50 (UO-31 renal) was 6.43 µM, the TGI (UO-31 renal) was greater than 100 µM and the GI50 (K-562 leukemia) was 2.07 µM. It also gave a TGI (K-562 leukemia) greater than 100 µM, a GI50 (HCT-15 colon) of 3.23 µM and a TGI (HCT-15 colon) greater than 100 µM. It also gave a GI50 (UACC-62 melanoma) of 2.53 µM, a TGI (UACC-62 melanoma) of 21.7 µM and a GI50 (RXF 393 renal) of 9.82 µM. For the same molecule, the TGI (RXF 393 renal) was greater than 100 µM, the GI50 (SK-MEL-5 melanoma) was 2.87 µM and the TGI (SK-MEL-5 melanoma) was greater than 100 µM. The GI50 (SF-295 CNS) was 4.15 µM, the TGI (SF-295 CNS) was greater than 100 µM and the GI50 (T-47D breast) was 2.29 µM. For the same molecule, the TGI (T-47D breast) was 9.14 µM, the GI50 (MDA-MB-435) was 0.607 µM and the TGI (MDA-MB-435) was 4.68 µM. It also gave a GI50 (U251 CNS) of 3.53 µM, a TGI (U251 CNS) of 25.5 µM and a GI50 (ACHN renal) of 7.41 µM. It also gave a TGI (ACHN renal) greater than 100 µM, a GI50 (LOX IMVI melanoma) of 4.88 µM and a TGI (LOX IMVI melanoma) greater than 100 µM. The GI50 (KM12 colon) was 3.45 µM, the TGI (KM12 colon) was greater than 100 µM and the GI50 (A498 renal) was 2.01 µM. For the same molecule, the TGI (A498 renal) was 6.22 µM, the GI50 (OVCAR-4 ovarian) was 5.36 µM and the TGI (OVCAR-4 ovarian) was greater than 100 µM. The GI50 (NCI-H226 lung) was 3.51 µM, the TGI (NCI-H226 lung) was 57.6 µM and the GI50 (BT-549 breast) was 2.17 µM. For the same molecule, the TGI (BT-549 breast) was greater than 100 µM, the GI50 (HT29 colon) was 3.13 µM and the TGI (HT29 colon) was greater than 100 µM. For the same molecule, the GI50 (CAKI-1 renal) was 4.13 µM, the TGI (CAKI-1 renal) was greater than 100 µM and the GI50 (NCI/ADR-RES ovarian) was 2.79 µM. For the same molecule, the TGI (NCI/ADR-RES ovarian) was 14 µM, the GI50 (SF-268 CNS) was 8.27 µM and the TGI (SF-268 CNS) was greater than 100 µM. The GI50 (COLO 205 colon) was 2.11 µM, the TGI (COLO 205 colon) was 6.83 µM and the GI50 (OVCAR-3 ovarian) was 3.08 µM. It also gave a TGI (OVCAR-3 ovarian) of 16 µM, a GI50 (TK-10 renal) of 5.07 µM and a TGI (TK-10 renal) greater than 100 µM. The GI50 (MCF7 breast) was 2.16 µM, the TGI (MCF7 breast) was greater than 100 µM and the GI50 (MDA-MB-231 breast) was 3.8 µM. The TGI (MDA-MB-231 breast) was greater than 100 µM, the GI50 (RPMI-8226 leukemia) was 2.62 µM and the TGI (RPMI-8226 leukemia) was 20.3 µM. For the same molecule, the GI50 (SW-620 colon) was 3.62 µM, the TGI (SW-620 colon) was greater than 100 µM and the GI50 (IGROV1 ovarian) was 8.35 µM. It also gave a TGI (IGROV1 ovarian) greater than 100 µM, a GI50 (MALME-3M melanoma) of 4.41 µM and a TGI (MALME-3M melanoma) greater than 100 µM. For the same molecule, the GI50 (HCT-116 colon) was 4.37 µM and the TGI (HCT-116 colon) was greater than 100 µM.
